Assay results taken from patent US20230365566A1, “HETEROCYCLIC AMIDES AND THEIR USE FOR MODULATING SPLICING” (REMIX THERAPEUTICS INC., priority 2020, published 2023).
pIC50: −log10 of the molar value.

Columns and labels:
Type in all cases: cell-based
Target C CJ mRNA = assay: Gene panel canonical junction qPCR assay, Target C; conditions: protocol of Example 42, read-out: Target C IC50 (decrease in CJ mRNA levels)
How it was run: (§1)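 A673 or K562 cells treated 24 h at 37° C with 11-point 3-fold dilutions (top 10 uM, DMSO ≤0.25%). Canonical junction mRNA quantified by RT-qPCR, normalized to GAPDH, GUSB or PPIA and DMSO control (2^(−ΔΔCt)). 4-parameter logistic fit gives IC50 for CJ decrease.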

[1] = test system: HTT mRNA canonical junction (CJ); assay: Splicing RT-qPCR assay, decrease of HTT canonical junction (CJ) mRNA; conditions: A673 or K562 cells, 24 hours compound treatment, concentration having 50% response in CJ decrease
How it was run: (§2)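 A673 (DMEM, 10% FBS) or K562 (IMDM, 10% FBS) cells exposed 24 h at 37 °C to an 11-point 3-fold series, top dose 10 uM final, DMSO ≤0.25%. Lysates assayed by RT-qPCR for HTT CJ and AJ, normalized to GAPDH, GUSB or PPIA and DMSO control via 2^(−ΔΔCt).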

[2] = test system: HTT mRNA alternative junction (AJ); assay: Splicing RT-qPCR assay, increase of HTT alternative junction (AJ) mRNA; conditions: A673 or K562 cells, 24 hours compound treatment, concentration having 50% response in AJ increase
How it was run: as §2

SMN2 CJ mRNA = assay: Gene panel canonical junction qPCR assay, SMN2; conditions: protocol of Example 42, read-out: SMN2 IC50 (decrease in CJ mRNA levels)
How it was run: as §1

HTT CJ mRNA = assay: Gene panel canonical junction qPCR assay, HTT; conditions: protocol of Example 42, read-out: HTT IC50 (decrease in CJ mRNA levels)
How it was run: as §1

| SMILES | pIC50 (Target C CJ mRNA) | AC50 [1] [nM] | AC50 [2] [nM] | pIC50 (SMN2 CJ mRNA) | pIC50 (HTT CJ mRNA) |
| --- | --- | --- | --- | --- | --- |
| Cc1cc2c(N3CCNCC3)ccc(C(=O)Nc3cc(F)c4cn(C)nc4c3)c2o1 [Compound 217, N-(4-fluoro-2-methylindazol-6-yl)-2-methyl-4-(piperazin-1-yl)-1-benzofuran-7-carboxamide] | < 5.00 | 1000 to 10000 | 1000 to 10000 | 5.00 to 6.00 | 5.00 to 6.00 |
| Cc1cn2cc(NC(=O)c3ccc(N4CCNC(C)C4)c4cn(C)nc34)cc(F)c2n1 (stereo not shown) [Compound 228] | 6.00 to 7.00 | 100 to 1000 | 100 to 1000 | > 7.00 | 6.00 to 7.00 |
| Cc1cn2cc(NC(=O)c3ccc(N4CCN(C)C(C)C4)c4cn(C)nc34)cc(F)c2n1 (stereo not shown) [Compound 229] | 5.00 to 6.00 | 100 to 1000 | 100 to 1000 | > 7.00 | 6.00 to 7.00 |
| Cn1cc2ccc(NC(=O)c3ccc(N4CCNCC4)c4cn(C)nc34)cc2n1 [Compound 230] | < 5.00 | > 10000 | > 10000 | < 5.00 | < 5.00 |
| Cn1cc2c(F)cc(NC(=O)c3ccc(N4CCNCC4)c4cn(C)nc34)cc2n1 [Compound 231] | < 5.00 | > 10000 | > 10000 | < 5.00 | < 5.00 |
| Cc1nc2c(F)cc(NC(=O)c3ccc(N4CCNCC4)c4cn(C)nc34)cc2o1 [Compound 234] | 5.00 to 6.00 | 1000 to 10000 | 100 to 1000 | > 7.00 | 5.00 to 6.00 |
| Cc1nc2c(F)cc(NC(=O)c3ccc(N4CCNCC4)c4cn(C)nc34)cc2s1 [Compound 235] | < 5.00 | 1000 to 10000 | 1000 to 10000 | > 7.00 | 5.00 to 6.00 |
| Cc1cn2cc(NC(=O)c3ccc(N4CCNCC4)c4cn(C)nc34)cc(C)c2n1 [Compound 238] | < 5.00 | 1000 to 10000 | 1000 to 10000 | > 7.00 | 5.00 to 6.00 |
| CCC1CN(c2ccc(C(=O)Nc3cc(F)c4nc(C)cn4c3)c3nn(C)cc23)CCN1 (stereo not shown) [Compound 239] | 5.00 to 6.00 | 100 to 1000 | 100 to 1000 | > 7.00 | 6.00 to 7.00 |
| Cc1cn2cc(NC(=O)c3ccc(N4CCNC(C)(C)C4)c4cn(C)nc34)cc(F)c2n1 [Compound 240] | 5.00 to 6.00 | 100 to 1000 | 100 to 1000 | > 7.00 | 6.00 to 7.00 |
| Cc1cn2cc(NC(=O)c3ccc(N4CCNC5(CC5)C4)c4cn(C)nc34)cc(F)c2n1 [Compound 241] | 5.00 to 6.00 | 1000 to 10000 | 1000 to 10000 | > 7.00 | 5.00 to 6.00 |
| Cc1cn2cc(NC(=O)c3ccc(N4CC5(CNC5)C4)c4cn(C)nc34)cc(F)c2n1 [Compound 242] | 5.00 to 6.00 | 100 to 1000 | 1000 to 10000 | > 7.00 | 6.00 to 7.00 |
| Cc1cn2cc(NC(=O)c3ccc(N4CC5(CN(C)C5)C4)c4cn(C)nc34)cc(F)c2n1 [Compound 243] | 5.00 to 6.00 | 100 to 1000 | 100 to 1000 | > 7.00 | 6.00 to 7.00 |
| Cc1cn2cc(NC(=O)c3ccc(N(C)C4CC(C)(C)NC(C)(C)C4)c4cn(C)nc34)cc(F)c2n1 [Compound 244] | < 5.00 | > 10000 | > 10000 | 6.00 to 7.00 | < 5.00 |
| Cc1cn2cc(NC(=O)c3ccc(N(C)C4CCN(C)CC4)c4cn(C)nc34)cc(F)c2n1 [Compound 245] | 6.00 to 7.00 | 100 to 1000 | 100 to 1000 | > 7.00 | 6.00 to 7.00 |
| Cc1cn2cc(NC(=O)c3ccc(N4CCNCC4)c4cn(C)nc34)ncc2n1 [Compound 246] | < 5.00 | 1000 to 10000 | 1000 to 10000 | > 7.00 | 5.00 to 6.00 |
| Cc1cn2nc(NC(=O)c3ccc(N4CCNCC4)c4cn(C)nc34)cc2c(C)n1 [Compound 247] | < 5.00 | > 10000 | > 10000 | < 5.00 | < 5.00 |
| Cc1cn2cc(NC(=O)c3ccc(N4CCC(NC(C)(C)C)C4)c4cn(C)nc34)cc(F)c2n1 (stereo not shown) [Compound 249] | < 5.00 | > 10000 | > 10000 | > 7.00 | < 5.00 |
| Cc1cn2cc(NC(=O)c3ccc(N4CCN5CCCC5C4)c4cn(C)nc34)cc(F)c2n1 (stereo not shown) [Compound 250] | 5.00 to 6.00 | 100 to 1000 | 100 to 1000 | > 7.00 | 6.00 to 7.00 |
| Cc1cn2cc(NC(=O)c3ccc(N4CCC(N(C)C)CC4)c4cn(C)nc34)cc(C)c2n1 [Compound 251] | 5.00 to 6.00 | 100 to 1000 | 100 to 1000 | > 7.00 | 6.00 to 7.00 |
| CCNC1CCN(c2ccc(C(=O)Nc3cc(F)c4nc(C)cn4c3)c3nn(C)cc23)CC1 [Compound 252] | 6.00 to 7.00 | 100 to 1000 | 100 to 1000 | > 7.00 | 6.00 to 7.00 |
| Cc1cn2nc(NC(=O)c3ccc(N4CCNCC4)c4nn(C)cc34)nc2c(C)n1 [Compound 253] | < 5.00 | > 10000 | > 10000 | 5.00 to 6.00 | < 5.00 |
| Cc1cn2cc(NC(=O)c3ccc(N4C[C@H]5CC[C@@H](C4)N5)c4cc(C)oc34)cc(F)c2n1 [Compound 255] | < 5.00 | 1000 to 10000 | 1000 to 10000 | > 7.00 | 5.00 to 6.00 |
| Cc1cn2cc(NC(=O)c3ccc(C4CCN(C)CC4)c4cc(C)oc34)cc(F)c2n1 [Compound 256, N-[8-fluoro-2-methylimidazo[1,2-a]pyridin-6-yl]-2-methyl-4-(1-methylpiperidin-4-yl)-1-benzofuran-7-carboxamide] | < 5.00 | 1000 to 10000 | 1000 to 10000 | > 7.00 | 5.00 to 6.00 |
| CCN1CCC(c2ccc(C(=O)Nc3cc(F)c4nc(C)cn4c3)c3oc(C)cc23)CC1 [Compound 257, 4-(1-ethylpiperidin-4-yl)-N-[8-fluoro-2-methylimidazo[1,2-a]pyridin-6-yl]-2-methyl-1-benzofuran-7-carboxamide] | < 5.00 | 1000 to 10000 | 1000 to 10000 | > 7.00 | 5.00 to 6.00 |
| Cc1cn2cc(NC(=O)c3ccc(N4CCC(N(C)C)C4)c4cn(C)nc34)cc(F)c2n1 (stereo not shown) [Compound 258] | 5.00 to 6.00 | 1000 to 10000 | 100 to 1000 | > 7.00 | 5.00 to 6.00 |
| Cc1cn2cc(NC(=O)c3ccc(N4CCC(NC(C)(C)C)CC4)c4cn(C)nc34)cc(F)c2n1 [Compound 259] | 5.00 to 6.00 | 1000 to 10000 | 1000 to 10000 | > 7.00 | 5.00 to 6.00 |
| Cc1cn2cc(NC(=O)c3ccc(N4C[C@H]5CC[C@@H](C4)N5)c4cn(C)nc34)cc(F)c2n1 [Compound 260] | < 5.00 | 100 to 1000 | 100 to 1000 | > 7.00 | 6.00 to 7.00 |
| Cc1cc2c(N3CCNCC3)ccc(C(=O)Nc3ccc4cn(C)nc4c3)c2o1 [Compound 261, 2-methyl-N-(2-methylindazol-6-yl)-4-(piperazin-1-yl)-1-benzofuran-7-carboxamide] | < 5.00 | 1000 to 10000 | 1000 to 10000 | 5.00 to 6.00 | 5.00 to 6.00 |
